Data set [1] has as its system OGD/R-induced H9c2 cells. As to the kind of experiment: OGD/R-induced injury, MTT viability, H9c2. It is filed as cell-based, rat. Conditions: H9c2, 10 and 30 μM, OGD 6 h, reperfusion 18 h. How it is done: For OGD/R treatment, H9c2 cells were washed twice with phosphate buffered saline (PBS). The medium was changed to glucose and serum free DMEM, and H9c2 cells were incubated in an incubator with 95% N2 and 5% CO2 at 37 °C. After 6 h, the medium was replaced with DMEM containing 10% FBS and 1% PS. Then H9c2 cells were returned to a normal incubator with 5% CO2 balanced with air at 37 °C for the indicated time.
(§1) Cell viability was determined by MTT assays. PBA was prepared to a stock solution dissolved in dimethyl sulfoxide (DMSO). RAW264.7, H9c2 cells, primary mouse cardiomyocytes were treated with different doses of PBA, and DMSO only as control for 48 h for the toxicity. In addition, H9c2 cells or primary mouse cardiomyocytes were treated with the indicated doses of PBA, diazoxide as positive control, DMSO only as control, then cultured with or without OGD/R treatment. At the end of the experiments, MTT was added into each well at the concentration of 0.5 mg/ml, and incubated at 37 °C for 4 h. After removal of the supernatant, 150 μL of DMSO was added to solubilize the formazan products. And the solution was measured at the absorbance of 490 nm by a spectrophotometer (Thermo Fisher Scientific, MA, USA). The results of the MTT assay in all groups were normalized to the control group with DMSO only treatment.

In data set [2] the test system is Nrf2. As to the kind of experiment: Nrf2 expression in cardiomyocytes under OGD/R. The note with it: cardiomyocytes under OGD/R condition. It is filed as cell-based. The protocol: (§2) Total protein was isolated from H9c2 cells, primary mouse cardiomyocytes, RAW264.7 cells and heart tissue using 1X RIPA buffer containing phosphatase and proteinase inhibitors at 4 °C. After measurement of the concentration, the cell lysates were separated by sodium dodecyl sulphate polyacrylamide gel electrophoresis (SDS-PAGE) and transferred to polyvinylidene fluoride (PVDF) membranes. The membranes were blocked in Tris-buffered saline-Tween 20 (TBST) buffer with 5% BSA for 1 h and incubated with primary antibodies (1:1000 dilution) overnight at 4 °C. After the membranes was washed by TBST buffer for three times, they were incubated with horseradish peroxidase (HRP)-conjugated secondary mouse or rabbit antibodies (1:3,000 dilution) at room temperature (RT) for 1.5 h and then detected by SuperEnhanced chemiluminescence (ECL) reaction reagents (GBCBIO Technologies Inc., Guangzhou, Guangdong, China). In brief, drop evenly the ECL working liquid onto the membrane at the ratio of 1 mL ECL working liquid and 10 cm^2 of membrane. After letting the membranes stand for 1-2 min, the bands of the respective proteins were detected with the exposure time of 10 ~60 s.

Data set [3] relates to NLRP3 inflammasome. The data set is described as follows: LPS plus ATP-induced NLRP3 inflammasome in RAW264.7. It is filed as cell-based. The protocol:
Based on the previous study, RAW264.7 cells were treated with different concentrations of PBA 1 h before 200 ng/mL lipopolysaccharide (LPS) stimulation for 6 h. Then, 2 mM adenosine triphosphate (ATP) was added and incubated for 20 min at 37 °C with 5% CO2.
as §2, with “In brief, drop evenly the ECL working liquid onto the membrane at the ratio of 1 mL ECL working liquid and 10 cm^2 of membrane.” left out
According to previous experiences, Nrf2 nucleus translocation could be detected at 6 h. […]

Data set [4] concerns the target T1, Keap1 C23S (Homo sapiens, UniProt Q14145, C23S).
T1 construct: His (N); made in house; host or cells: E. coli BL21 (DE3)
The data set is described as follows: ITC titration of PBA with Keap1-C23S. It is filed as binding. Conditions: 25 ℃. The protocol:
The Keap1 was amplified by PCR using a human cDNA library, and was subcloned into the vector pET28-TEV, which contained one tobacco etch virus (TEV) protease cleavage site at the upstream multiple cloning site. The protein was expressed in E. coli BL21 (DE3) cells and incubated at 37 °C until the OD600 value reached 0.6, using 0.2 mM isopropyl β-D-1-thiogalactopyranoside (IPTG) overnight induction at 18 °C. The cells were isolated by centrifugation, resuspended in ice-cold lysis buffer and lysed by cryogenic overpressure cell breaker at 1,200 psi. The lysates were centrifuged for 60 min at 14,000 rpm to obtain the supernatant. Gravity flow purification of Keap1 protein was obtained at room temperature using 1 mL of Ni-NTA and eluted in buffer containing 250 mM imidazole, followed by 1 mL of HiTrap QHP for the second step purification. The final protein was purified and validated by Superdex 200 10/300GL resin.
The mutant plasmid DNA was obtained by PCR. The PCR products were cleaved by DpnI restriction enzymes. The restriction endonuclease-cleaved mixture was subsequently transformed into E. coli DH5α. Colonies were evaluated by colony PCR and sequenced. The mutant plasmid was transformed into E. coli BL21 (DE3) after successful sequencing. The steps for expression and purification of all recombinants were described above.
Isothermal calorimetry (ITC) titration experiments were performed at 25 °C. WT Keap1, Keap1 mutants and PBA were dissolved in binding buffer (40 mM Tris-HCl pH 8.0, 250 mM NaCl). In a typical experiment, 60 μL of PBA (1 mM) was injected 19 times at 2-min intervals from a stirring syringe into the sample cell containing 300 μL of WT protein or mutants (30 μM). The first injection was 0.4 μL of PBA, and the subsequent 18 injections were 2 μL each time. The site-binding models were determined by using MicroCal Origin software.

Data set [5] has as its system primary neonatal mouse cardiomyocytes. As to the kind of experiment: MTT cytotoxicity, primary cardiomyocytes. It is filed as cell-based. Conditions: under 240 μM, 48 h. How it is done:
The heart was removed from the neonatal C57BL/6 mice and cut into 1 mm^3 pieces in ice […] buffer. The tissues were digested with the mixture of 0.125% trypsin (Gibco, 15090-046) and 0.1% type II collagenase (Gibco, 17101-015) 6 min at 37 °C for three times until the tissues were completely digested. The cells were harvested and seeded in a dish. After 90 min of incubation, the cell culture medium was collected and centrifuged. The centrifuged cardiomyocytes were harvested, seeded on 0.1 % gelatin-coated culture plates with DMEM containing 10% FBS and […] Brdu, and incubated in a 37°C incubator.
as §1, with “After removal of the supernatant, 150 μL of DMSO was added to solubilize the formazan products.” left out, “The results of the MTT assay in all groups were normalized to the control group with DMSO only treatment.” left out

Here are results for one molecule from paper PMC7738871, “Covalent modification of Keap1 at Cys77 and Cys434 by pubescenoside a suppresses oxidative stress-induced NLRP3 inflammasome activation in myocardial ischemia-reperfusion injury” (Theranostics, 2021).

The term Kd denotes the concentration at which binding is half-saturated.

SMILES strings stand for the structures.

T1 sequence (Q14145 whole entry C23S): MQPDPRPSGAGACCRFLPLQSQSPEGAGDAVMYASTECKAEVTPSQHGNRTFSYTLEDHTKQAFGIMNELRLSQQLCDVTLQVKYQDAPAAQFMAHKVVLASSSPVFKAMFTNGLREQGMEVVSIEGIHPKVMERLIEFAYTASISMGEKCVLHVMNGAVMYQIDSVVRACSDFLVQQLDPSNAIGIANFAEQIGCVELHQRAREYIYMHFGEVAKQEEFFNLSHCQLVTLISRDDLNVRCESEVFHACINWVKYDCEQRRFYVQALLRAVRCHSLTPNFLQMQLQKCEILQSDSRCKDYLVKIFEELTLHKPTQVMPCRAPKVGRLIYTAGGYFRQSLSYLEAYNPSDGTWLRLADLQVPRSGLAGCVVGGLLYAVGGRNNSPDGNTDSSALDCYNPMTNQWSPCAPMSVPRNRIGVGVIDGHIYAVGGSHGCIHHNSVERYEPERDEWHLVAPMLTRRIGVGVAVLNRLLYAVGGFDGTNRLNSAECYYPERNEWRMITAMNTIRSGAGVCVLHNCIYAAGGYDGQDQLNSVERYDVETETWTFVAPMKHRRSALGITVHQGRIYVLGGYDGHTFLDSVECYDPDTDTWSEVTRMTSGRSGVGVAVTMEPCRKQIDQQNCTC

Consider `C=C(COC(=O)C=Cc1ccc(O)c(O)c1)C(O)COC1OC(CO)C(O)C(O)C1O` (stereo not drawn) [PBA, pubescenoside A], for which the “protection against OGD/R induced injury (cell viability, MTT)” value in data set [1] is on record as “protected”. In addition, the Nrf2 expression entry in data set [2] is “strongly induced”. Further, the “LPS/ATP-induced ACS and Caspase1 expression (immunofluorescent staining)” value in data set [3] (RAW264.7, 30 μM) is given as “significantly reduced”. For the same molecule, the “LPS/ATP-mediated NLPR3 induction, cleaved-caspase1 and IL-1β” value in data set [3] (RAW264.7, PBA 1 h pretreatment, 200 ng/mL LPS 6 h, 2 mM ATP 20 min, western blot) was “attenuated”. In data set [4], binding was put at a Kd of 9.78 µM, the “T△S” value turned out to be 3.22 ± 0.00 kcal/mol, the “△G” value is -6.84 ± 0.00 kcal/mol and the “△H” value is -3.62 ± 0.241 kcal/mol. Also, in data set [5], the “cell toxicity (MTT)” value is reported as “did not exhibit any cell toxicity”.
